These results are taken from patent US11236080B2, “Protein kinase inhibitors” (Princeton Drug Discovery Inc, priority 2016, dated 2022).

Data set [1] is described as follows: Metabolic stability in human liver microsomes. To be noted: human liver microsomes 0.5 mg/mL, NADPH and UDPGA, 37° C., read-out: In vitro t1/2. Type of data set: in vitro ADME. How it is done:
FIG. 1. Metabolic stability of compounds in human liver microsomal incubations. […] Concentrations at specified times were determined by LC-MS/MS.
The incubation reactions at various time points were quenched by adding 2× volumes of acetonitrile containing 100 nM reserpine. The quenched incubation samples were centrifuged at 4000 RPM for 10 min, and the supernatants injected for LC/MS/MS analysis. LC/MS/MS analysis was carried out on a AB Sciex 4000 Q Trap LC/MS/MS system coupled with Shimadzu Prominence UFLCXR 20 series (including a CBM-20A controller, two LC-20ADXR solvent delivery units, SIL-20AC HT autosampler, CTO-20A column oven, and a SPD-20A UV detector).
Background: Microsomes from liver hold many membrane-bound enzymes, among them those of drug oxidation.

A short description of data set [2]: Lung tissue and plasma concentration ratios. Type of data set: in vivo, CD-1 mouse. To be noted: mice, single oral dose 5 mg/kg, dosed together with dasatinib, all time points. As for the experimental part:
CD-1 mouse (approximate weight 30 g, N=3) were dosed by oral gavage at 10 mL/kg. Blood samples were collected into tubes containing EDTA as the anticoagulant at 1, 2, 4, 10 h post-dosing for Compound X, and predose, 1, 2, 3, 8, 10 and 24 h post-dosing for Compound XI. The plasma samples were prepared by centrifugation. Lung samples were also collected at each of the above time points. The lung samples were homogenated in 4× distilled water (v/w). The plasma samples and the homogenated lung tissue samples were mixed with 3× volumes of acetonitrile containing 100 nM reserpine as the internal standard, and centrifuged at 4000 RPM for 15 min. The supernatants were injected for LC/MS analysis which were carried out on a AB Sciex 4000 Q Trap LC/MS/MS system coupled with Shimadzu Prominence UFLCXR 20 series (including a CBM-20A controller, two LC-20ADXR solvent delivery units, SIL-20AC HT autosampler, CTO-20A column oven, and a SPD-20A UV detector). The samples were separated on a Phenomenex Columbus column (C18, 4 μm, 50×2 mm) eluted with two solvent systems: 2 mM ammonium acetate in water containing 0.1% formic acid (A) and methanol (B) at a linear gradient starting at 25%. Electrospray ionization in positive mode was used to acquire LC/MS/MS data.

As to `[2H]c1cc(C)c(NC(=O)c2cnc(Nc3cc(N4CCCCC4)nc(C)n3)s2)c(Cl)c1` [Compound I, N-(2-chloro-4-deuterio-6-methyl-phenyl)-2-[[2-methyl-6-(1-piperidyl)pyrimidin-4-yl]amino]thiazole-5-carboxamide], the half-life at 1 μM in data set [1] amounted to 4.68 h.

Turning to `Cc1nc(Nc2ncc(C(=O)Nc3c(C)cccc3Cl)s2)cc(N2CC[C@H](O)C2)n1` [Compound X, N-(2-chloro-6-methylphenyl)-2-[[2-methyl-6-((S)-3-hydroxypyrrolidin-1-yl)pyrimidin-4-yl]amino]thiazole-5-carboxamide], the “ratio of lung tissue concentration to plasma concentration, compared to dasatinib” value in data set [2] is reported as “significantly lower ratios”.

`Cc1nc(Nc2ncc(C(=O)Nc3c(C)cccc3Cl)s2)cc(N2CC[C@@H](O)C2)n1` [Compound XI, N-(2-chloro-6-methylphenyl)-2-[[2-methyl-6-((R)-3-hydroxypyrrolidin-1-yl)pyrimidin-4-yl]amino]thiazole-5-carboxamide]: in data set [2], the “ratio of lung tissue concentration to plasma concentration, compared to dasatinib” value is “significantly lower ratios”.
